Measurements published in US12655125B2 (SIRONAX LTD., priority 2020, dated 2026).

The compounds below were run on HT-29 cells (assay: HT29 Cells 0FBS Assay In Vitro (TNF-α/SMAC mimetic/zVAD-FMK induced necroptosis, CellTiter-Glo cell viability)). Details: Homo sapiens; HT-29 cells, FBS free medium, TNF-α (10 ng/ml), SMAC mimetic (6 uM), zVAD-FMK (10 μM), 20 hours; geometric mean EC50; read-out: Cell activity (EC50) of Compounds 1-116.
Format: cell-based
Procedure, shortened: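 HT-29 cells (5,000/well, seeded overnight) in serum-free McCoy's 5A were stimulated with TNF-α 10 ng/ml, SMAC mimetic 6 μM and zVAD-FMK 10 μM to induce necroptosis. Compound added as 10-point 3-fold series for 20 h at 37° C. CellTiter-Glo luminescence gives viability; EC50 is geometric mean of duplicate dose-responses.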

SMILES | EC50
Cc1[nH]ncc1-c1ncc(F)c(OC2CN(C(=O)N3N=CC[C@H]3c3cc(F)cc(F)c3)C2)n1 [compound 90, (S)-(5-(3,5-difluorophenyl)-4,5-dihydro-1H-pyrazol-1-yl)(3-((5-fluoro-2-(5-methyl-1H-pyrazol-4-yl)pyrimidin-4-yl)oxy)azetidin-1-yl)methanone] | 0.1 to 100 nM
Cn1ncc(-c2cc(OC3CN(C(=O)N4N=CC[C@H]4c4cc(F)cc(F)c4)C3)c(F)cn2)n1 [compound 33, (S)-(5-(3,5-difluorophenyl)-4,5-dihydro-1H-pyrazol-1-yl)(3-((5-fluoro-2-(2-methyl-2H-1,2,3-triazol-4-yl)pyridin-4-yl)oxy)azetidin-1-yl)methanone] | 0.1 to 100 nM
Cn1ncc(C#N)c1-c1cc(OC2CN(C(=O)N3N=CC[C@H]3c3cc(F)cc(F)c3)C2)c(F)cn1 [compound 49, (S)-5-(4-((1-(5-(3,5-difluorophenyl)-4,5-dihydro-1H-pyrazole-1-carbonyl)azetidin-3-yl)oxy)-5-fluoropyridin-2-yl)-1-methyl-1H-pyrazole-4-carbonitrile] | 0.1 to 100 nM
Cc1nc(C)c(-c2ncc(F)c(OC3CN(C(=O)N4N=CC[C@H]4c4cc(F)cc(F)c4)C3)n2)s1 [compound 19, (S)-(5-(3,5-difluorophenyl)-4,5-dihydro-1H-pyrazol-1-yl)(3-((2-(2,4-dimethylthiazol-5-yl)-5-fluoropyrimidin-4-yl)oxy)azetidin-1-yl)methanone] | 0.1 to 100 nM
Cn1ncc(C(=O)N2CC(O)C2)c1-c1cc(OC2CN(C(=O)N3N=CC[C@H]3c3cc(F)cc(F)c3)C2)c(F)cn1 [compound 73, (S)-(5-(3,5-difluorophenyl)-4,5-dihydro-1H-pyrazol-1-yl)(3-((5-fluoro-2-(4-(3-hydroxyazetidine-1-carbonyl)-1-methyl-1H-pyrazol-5-yl)pyridin-4-yl)oxy)azetidin-1-yl)methanone] | 100 to 1000 nM
CC(C)CNC(=O)c1cnn(C)c1-c1cc(OC2CN(C(=O)N3N=CC[C@H]3c3cc(F)cc(F)c3)C2)c(F)cn1 [compound 70, (S)-5-(4-((1-(5-(3,5-difluorophenyl)-4,5-dihydro-1H-pyrazole-1-carbonyl)azetidin-3-yl)oxy)-5-fluoropyridin-2-yl)-N-isobutyl-1-methyl-1H-pyrazole-4-carboxamide] | 0.1 to 100 nM
Cc1csnc1-c1ccc(F)c(OC2CN(C(=O)N3N=CC[C@H]3c3cc(F)cc(F)c3)C2)n1 [compound 23, (S)-(5-(3,5-difluorophenyl)-4,5-dihydro-1H-pyrazol-1-yl)(3-((3-fluoro-6-(4-methylisothiazol-3-yl)pyridin-2-yl)oxy)azetidin-1-yl)methanone] | 0.1 to 100 nM
Cc1nn(-c2cc(OC3CN(C(=O)N4N=CC[C@H]4c4cc(F)cc(F)c4)C3)c(F)cn2)c(C)c1N [compound 109, (S)-(3-((2-(4-amino-3,5-dimethyl-11H-pyrazol-1-yl)-5-fluoropyridin-4-yl)oxy)azetidin-1-yl)(5-(3,5-difluorophenyl)-4,5-dihydro-1H-pyrazol-1-yl)methanone] | 0.1 to 100 nM
Cn1nc(N)cc1-c1cc(OC2CN(C(=O)N3N=CC[C@H]3c3cc(F)cc(F)c3)C2)c(F)cn1 [compound 41, (S)-(3-((2-(3-amino-1-methyl-1H-pyrazol-5-yl)-5-fluoropyridin-4-yl)oxy)azetidin-1-yl)(5-(3,5-difluorophenyl)-4,5-dihydro-1H-pyrazol-1-yl)methanone] | 0.1 to 100 nM
Cn1ncc(C#N)c1-c1ccc(F)c(OC2CN(C(=O)N3N=CCC3c3cc(F)cc(F)c3)C2)n1 (stereo not shown) [compound 111, 5-(6-((1-(5-(3,5-difluorophenyl)-4,5-dihydro-1H-pyrazole-1-carbonyl)azetidin-3-yl)oxy)-5-fluoropyridin-2-yl)-1-methyl-11H-pyrazole-4-carbonitrile] | 0.1 to 100 nM

Same assay, conditions: Homo sapiens; HT-29 cells, FBS free medium, TNF-α (10 ng/ml), SMAC mimetic (6 uM), zVAD-FMK (10 μM), 20 hours; geometric mean EC50; read-out: Cell activity (EC50) of Compounds 117-281

SMILES | EC50
CNC(=O)c1c(C)c(-c2cc(OC3CN(C(=O)N4N=CC[C@H]4c4cc(F)cc(F)c4)C3)c(F)cn2)nn1C [compound 246, (S)-3-(4-((1-(5-(3,5-difluorophenyl)-4,5-dihydro-1H-pyrazole-1-carbonyl)azetidin-3-yl)oxy)-5-fluoropyridin-2-yl)-N,1,4-trimethyl-1H-pyrazole-5-carboxamide] | 0.1 to 100 nM
CN(C)c1cc(-c2cc(OC3CN(C(=O)N4N=CC[C@H]4c4cc(F)cc(F)c4)C3)c(F)cn2)n(C)n1 [compound 166, (S)-(5-(3,5-difluorophenyl)-4,5-dihydro-1H-pyrazol-1-yl)(3-((2-(3-(dimethylamino)-1-methyl-1H-pyrazol-5-yl)-5-fluoropyridin-4-yl)oxy)azetidin-1-yl)methanone] | 0.1 to 100 nM
Cc1c(NCC2CC2)nn(C)c1-c1cc(OC2CN(C(=O)N3N=CC[C@H]3c3cc(F)cc(F)c3)C2)c(F)cn1 [compound 163, (S)-(3-((2-(3-((cyclopropylmethyl)amino)-1,4-dimethyl-1H-pyrazol-5-yl)-5-fluoropyridin-4-yl)oxy)azetidin-1-yl)(5-(3,5-difluorophenyl)-4,5-dihydro-1H-pyrazol-1-yl)methanone] | 0.1 to 100 nM
Cc1c(NCC(N)=O)nn(C)c1-c1cc(OC2CN(C(=O)N3N=CC[C@H]3c3cc(F)cc(F)c3)C2)c(F)cn1 [compound 145, (S)-2-((5-(4-((1-(5-(3,5-difluorophenyl)-4,5-dihydro-1H-pyrazole-1-carbonyl)azetidin-3-yl)oxy)-5-fluoropyridin-2-yl)-1,4-dimethyl-1H-pyrazol-3-yl)amino)acetamide] | 0.1 to 100 nM
Cc1nn(-c2cc(OC3CN(C(=O)N4N=CC[C@H]4c4cc(F)cc(F)c4)C3)c(F)cn2)cc1C(N)=O [compound 272, (S)-1-(4-((1-(5-(3,5-difluorophenyl)-4,5-dihydro-1H-pyrazole-1-carbonyl)azetidin-3-yl)oxy)-5-fluoropyridin-2-yl)-3-methyl-11H-pyrazole-4-carboxamide] | 0.1 to 100 nM
Cc1nn(-c2cc(OC3CN(C(=O)N4N=CC[C@H]4c4cc(F)cc(F)c4)C3)c(F)cn2)c(C)c1[S+](C)[O-] (stereo partly drawn) [compound 204, ((S)-5-(3,5-difluorophenyl)-4,5-dihydro-1H-pyrazol-1-yl)(3-((2-(3,5-dimethyl-4-(methylsulfinyl)-1H-pyrazol-1-yl)-5-fluoropyridin-4-yl)oxy)azetidin-1-yl)methanone] | 0.1 to 100 nM
Cc1c(-c2cc(OC3CN(C(=O)N4N=CC[C@H]4c4cc(F)cc(F)c4)C3)c(F)cn2)nn(C)c1C(N)=O [compound 229, (S)-3-(4-((1-(5-(3,5-difluorophenyl)-4,5-dihydro-1H-pyrazole-1-carbonyl)azetidin-3-yl)oxy)-5-fluoropyridin-2-yl)-1,4-dimethyl-1H-pyrazole-5-carboxamide] | 0.1 to 100 nM
CN(C)C(=O)c1cc(-c2cc(OC3CN(C(=O)N4N=CC[C@H]4c4cc(F)cc(F)c4)C3)c(F)cn2)n(C)n1 [compound 171, (S)-5-(4-((1-(5-(3,5-difluorophenyl)-4,5-dihydro-1H-pyrazole-1-carbonyl)azetidin-3-yl)oxy)-5-fluoropyridin-2-yl)-N,N,1-trimethyl-11H-pyrazole-3-carboxamide] | 0.1 to 100 nM
Cc1c(-c2cc(OC3CN(C(=O)N4N=CC[C@H]4c4cc(F)cc(F)c4)C3)c(F)cn2)nn(C)c1C#N [compound 237, (S)-3-(4-((1-(5-(3,5-difluorophenyl)-4,5-dihydro-1H-pyrazole-1-carbonyl)azetidin-3-yl)oxy)-5-fluoropyridin-2-yl)-1,4-dimethyl-1H-pyrazole-5-carbonitrile] | 0.1 to 100 nM
CSc1nn(C)c(-c2cc(OC3CN(C(=O)N4N=CC[C@H]4c4cc(F)cc(F)c4)C3)c(F)cn2)c1C [compound 176, (S)-(5-(3,5-difluorophenyl)-4,5-dihydro-1H-pyrazol-1-yl)(3-((2-(1,4-dimethyl-3-(methylthio)-1H-pyrazol-5-yl)-5-fluoropyridin-4-yl)oxy)azetidin-1-yl)methanone] | 0.1 to 100 nM
Cc1nn(-c2cc(OC3CN(C(=O)N4N=CC[C@H]4c4cc(F)cc(F)c4)C3)c(F)cn2)c(C)c1C(C)(C)C(=O)O [compound 279, (S)-2-(1-(4-((1-(5-(3,5-difluorophenyl)-4,5-dihydro-1H-pyrazole-1-carbonyl)azetidin-3-yl)oxy)-5-fluoropyridin-2-yl)-3,5-dimethyl-1H-pyrazol-4-yl)-2-methylpropanoic acid] | 100 to 1000 nM
CCNC(=O)c1c(C)nn(-c2cc(OC3CN(C(=O)N4N=CC[C@H]4c4cc(F)cc(F)c4)C3)c(F)cn2)c1C [compound 231, (S)-1-(4-((1-(5-(3,5-difluorophenyl)-4,5-dihydro-1H-pyrazole-1-carbonyl)azetidin-3-yl)oxy)-5-fluoropyridin-2-yl)-N-ethyl-3,5-dimethyl-1H-pyrazole-4-carboxamide] | 0.1 to 100 nM
Cc1nn(-c2cc(OC3CN(C(=O)N4N=CC[C@H]4c4cc(F)cc(F)c4)C3)c(F)cn2)c(C)c1C(C)(C)C(N)=O [compound 280, (S)-2-(1-(4-((1-(5-(3,5-difluorophenyl)-4,5-dihydro-1H-pyrazole-1-carbonyl)azetidin-3-yl)oxy)-5-fluoropyridin-2-yl)-3,5-dimethyl-1H-pyrazol-4-yl)-2-methylpropanamide] | 0.1 to 100 nM
Cc1cnn(C)c1-c1ccc(F)c(OC2CN(C(=O)N3N=CC[C@H]3c3cc(F)cc(F)c3)C2)c1 [compound 197, (S)-(5-(3,5-difluorophenyl)-4,5-dihydro-1H-pyrazol-1-yl)(3-(5-(1,4-dimethyl-1H-pyrazol-5-yl)-2-fluorophenoxy)azetidin-1-yl)methanone] | 0.1 to 100 nM
Cc1nn(CCO)c(C)c1-c1ncc(F)c(OC2CN(C(=O)N3N=CC[C@H]3c3cc(F)cc(F)c3)C2)n1 [compound 156, (S)-(5-(3,5-difluorophenyl)-4,5-dihydro-1H-pyrazol-1-yl)(3-((5-fluoro-2-(1-(2-hydroxyethyl)-3,5-dimethyl-1H-pyrazol-4-yl)pyrimidin-4-yl)oxy)azetidin-1-yl)methanone] | 0.1 to 100 nM
